# Experimental data taken from patent US20230123601A1, “PHARMACEUTICAL COMBINATION OF ANTIVIRAL AGENTS TARGETING HBV AND/OR AN IMMUNE MODULATOR FOR TREATMENT OF HBV” (priority 2019, published 2023).
# Where two headings read alike, the source gives them in different places. Strand notation (5' to 3'): a small letter for the sugar, then the base; units joined by * are phosphorothioate-linked, units joined directly phosphodiester-linked; [ ] holds rarer units or linkages, { } end groups; capitals alone tell only the bases. {MOP} = methoxy, phosphonate-4'-oxy on the 2'-O-methyluridine at position 1; m = 2'-O-methyl; f = 2'-fluoro
# Key:
# [1] = system: HBV; format: in vivo; settings: HDI mice; for circulating HBsAg / hepatic viral RNAs: entecavir 500 ng/kg PO daily for 14 days alone
# Procedure: The RNAi oligonucleotides targeting the S antigen impact both the viral polymerase and HBsAg protein. In this study, the combinational effects of HBV(s)-219P2 as a monotherapy and combinational treatment with entecavir was explored in an HBV-expressing mouse (HDI model) for antiviral activity.
# Mice were administered daily oral dosing of 500 ng/kg Entecavir (ETV) for 14 days. A single subcutaneous administration of HBV(s)-219P2 took place. Circulating viral load (HBV DNA) was measured by qPCR (FIG. 25A), plasma HBsAg level was measured by ELISA (FIG. 25B), and liver HBV mRNA and pgRNA levels were measured by qPCR.
# [2] = system: HBV Genotype A S ORF target sites fused to reporter gene; test: psiCHECK-2 dual-luciferase reporter mismatch assay in HeLa cells; format: cell-based
# From the text: A psiCHECK-2 dual-luciferase reporter system was utilized to evaluate the effects of a mismatch at a selected position in each of HBV-217, HBV-219, HBV-254, HBV-255, and HBV-258. The psiCHECK vector enables monitoring of changes in expression of a target gene fused to a reporter gene, where active RNAi degrades the fusion construct to produce a corresponding decrease in reporter signal. The diagram in FIG. 16 generically depicts the vector utilized in these assays. The parent partial reporter sequence contained 120 base-pair fragments from Genotype A (GenBank: AM282986.1) around target sites of interest in the S ORF. […]
# The psiCHECK2 reporter assays with each oligonucleotide were conducted over a three-day period using a 6-point, 5-fold serial dilution starting at 1 nM transfected in HeLa cells. […] The cells were then incubated at 37° C. in a CO2 incubator until the cells were ready to harvest and assay for the target gene. On day 3, 100 μL of Dual-Glo Reagent was added to each well, mixed and incubated for 10 minutes before reading the luminescence. A further 100 μL of Dual-Glo Stop & Glo was added to each well, mixed and incubated for 10 minutes before reading the luminescence. […] The EC50s values determined for each oligonucleotide are shown in Table 15 with additional specifications.
# [3] = system: HBV; test: HBsAg levels in HDI-mice after subcutaneous oligonucleotide; format: in vivo
# From the text: HBsAg levels were monitored in both oligonucleotide treated and untreated control mice for a period spanning 147 days.
Compound,mean decrease in HBV DNA detected in plasma relative to PBS ([1]; entecavir 500 ng/kg PO daily for 14 days) [log],circulating HBsAg [1],hepatic viral RNAs [1],circulating HBsAg ([1]; listed as entecavir),hepatic viral RNAs ([1]; listed as entecavir),"EC50 ([2]; mismatch duplex, single mismatch to reporter plasmid, read-out: MM EC50s) [nM]","EC50 ([2]; parent duplex, 100% homology to reporter plasmid, read-out: Parent EC50s) [nM]","HBsAg levels ([3]; HDI-mice, single subcutaneous dose evaluation)","HBsAg levels ([3]; mice, QW×3, 3 mg/kg subcutaneous, monitored 147 days)"
C=C1[C@H](CO)[C@@H](O)C[C@@H]1n1cnc2c(=O)[nH]c(N)nc21 [Entecavir],~1.6,no efficacy,no efficacy,No significant decrease,No significant decrease,,,,
"HBV-254: HBsAg-targeting duplex oligonucleotide, sense SEQ ID NO: 55, antisense SEQ ID NO: 56 (sense GUGGUGGACUUCUCUCAAUAGCAGCCGAAAGGCUGC; antisense {MOP}-mU*fA*fU*mUfGmAfGfAmGfAmAfGmUfCmCfAmCmCfAmC*mG*mG; sense: chemistry not given here; tetraloop form)",,,,,,0.096,0.037,systematically reduced HBsAg levels in mice with increasing dosage,Diminished HBsAg levels persisted in treated mice throughout the entirety of the study
